Tests used:
[1] = system: SDF-1 induced Ca flux in SUP-T1 cells; assay: Inhibition of chemokine (SDF-1) induced Ca flux measured on a FLIPR; assay type: cell-based; settings: Homo sapiens
Procedure: Inhibition of Chemokine Induced Ca Flux Measured on a FLIPR (Molecular Devices) Loading dye: Fluo-3, AM (Molecular Probes F-1241) is dissolved in anhydrous DMSO and stored frozen in aliquots. To increase the solubility of the dye in the loading medium, 10% (w/v) pluronic acid (Molecular Probes F-127) is added to the Fluo-3 stock solution immediately before use. HBSS+20 mM Hepes buffer+0.2% BSA, pH 7.4. HBSS 10× [(w/o phenol red and sodium bicarbonate (Gibco 14 065–049)]; Hepes buffer 1M (Gibco 15 630–056), BSA (Sigma A3675). The flux buffer is vacuum-filtered and stored refrigerated for a maximum of 5 days. Before use in the experiment, the buffer is warmed at 37° C. in a waterbath. The test compounds were diluted in flux buffer to the desired concentration and added to 4 wells of a black microplate (4 parallel measurements per compound). The following control wells were used: 100% response control (no inhibition), flux buffer was added; 100% inhibition control: chemokine was added at 5-times the concentration required to induce a Ca flux. The chemokines are diluted in flux buffer to concentrations that are 4-fold higher than the desired concentrations required for stimulation of the cells (i.e. 2.5 nM for SDF-1[…] and 0.6 nM for RANTES). The chemokines were added to untreated 96-well Sero well compound plates (International Medical, Sterilin code 611F96). In the negative control well's (baseline monitoring), flux buffer is added instead of chemokine. As a positive control to check for dye loading efficiency, 20 μM digitonin (final concentration) was also included. The agonist plate was incubated in the FLIPR (37° C.) for 15–30 min. Cell Loading Protocol for Measuring Inhibition of SDF-1[…] Induced Ca Flux in SUP-T1 Cells. SUP-T1 cells were centrifuged at room temperature (RT) and re-suspended in loading medium (RPMI-1640 containing 2% FBS and 4 μM Fluo-3, AM). The cells were incubate at room temperature for 45 min. then washed twice in flux buffer then incubated in flux buffer at room temperature for 10 min. The cells were centrifuged and re-suspended in flux buffer at a density of 3×10^6 cells per mL. A 100 uL aliquot of the cell suspension (3×10^5 cells) was added to each well of a black microplate (Costar 3603), which already contains 50 uL of a solution of the test compound (at concentrations that are 3-fold higher than the desired final compound concentrations). The microplate is then gently centrifuged at room temperature. Homogeneous spreading of the cells on the bottom of the microplate wells was then confirmed with a microscope and the microplate was incubated in the FLIPR (37° C.) for 10 min. prior to testing. Fluorescence Measurements as a Function of Time on the FLIPR The FLIPR settings (camera exposure time and laser power) are adjusted to obtain initial fluorescence values between 8,000 and 10,000 units. After monitoring a 20 second-baseline, the agonist (chemokine) (50 uL) is added by automatic pipettor with black pipette tips. Fluorescence is measured simultaneously in all wells of the microplate every 2 seconds (first 2 min) and thereafter every 6 seconds (additional 2 min). The average ca-flux measured in each set of 4 identical wells (one test compound) was calculated by the FLIPR software.

[2] = system: HIV-1 NL4.3 or IIIB; assay: Inhibition of HIV-1 (NL4.3 or IIIB, CXCR4 using) replication in MT-4 cells, MTT viability; assay type: cell-based; settings: Human immunodeficiency virus 1, IIIB, MT4, concentration protecting 50% of virus-infected cells against viral cytopathicity
Procedure: Assay for Inhibition of HIV-1 (NL4.3) Replication in MT-4 Cells Inhibition of HIV-1 NL4.3 (or IIIB, CXCR4 using) replication assays were performed as previously described (Bridger et al. J. Med. Chem. 1999, 42, 3971-3981; De […] et al. Proc. Natl. Acad. Sci, 1992, 89, 5286-5290; De […] et al. Antimicrob. Agents Chemother. 1994, 38, 668-674; Bridger et al. J. Med. Chem. 1995, 38, 366-378; Schols et al. J. Exp. Med., 1997, 186, 1383-1388). Anti-HIV activity and cytotoxicity measurements were carried out in parallel. They were based on the viability of MT-4 cells that had been infected with HIV in the presence of various concentrations of the test compounds. After the MT-4 cells were allowed to proliferate for 5 days, the number of viable cells was quantified by a tetrazolium-based colorimetric 3-(4,5-dimethylthiazol-2-yl)-2,5-diphenyltetrazolium bromide (MTT) procedure in 96-well microtrays. In all of these assays, viral input (viral multiplicity of infection, MOI) was 0.01, or 100 times the 50% cell culture infective dose (CCID50). The EC50 was defined as the concentration required to protect 50% of the virus-infected cells against viral cytopathicity.

Compound	inhibition at 20 µg/mL [1]	EC50 [2]
Fc1ccc2nc(CN(Cc3ccc(CNCc4ccccn4)cc3)C3CCCc4cccnc43)[nH]c2c1 (centres unmarked) [Example 3, N-(2-pyridinylmethyl)-N′-(5-fluoro-1-H-benzimidazol-2-ylmethyl)-N′-(5,6,7,8-tetrahydro-8-quinolinyl)-1,4-benzenedimethanamine]	> 20%	< 20 µg/mL
Cc1ccc2nc(CN(Cc3ccc(CNCc4ccccn4)cc3)C3CCCc4cccnc43)[nH]c2c1C (centres unmarked) [Example 4, N-(2-pyridinylmethyl)-N′-(4,5-dimethyl-1-H-benzimidazol-2-ylmethyl)-N′-(5,6,7,8-tetrahydro-8-quinolinyl)-1,4-benzenedimethanamine]	> 20%	< 20 µg/mL
FC(F)(F)c1cccc2nc(CN(Cc3ccc(CNCc4ccccn4)cc3)C3CCCc4cccnc43)[nH]c12 (centres unmarked) [Example 5, N-(2-pyridinylmethyl)-N′-(4-trifluoromethyl-1-H-benzimidazol-2-ylmethyl)-N′-(5,6,7,8-tetrahydro-8-quinolinyl)-1,4-benzenedimethanamine]	> 20%	< 20 µg/mL
COC(=O)c1ccc2[nH]c(CN(Cc3ccc(CNCc4ccccn4)cc3)C3CCCc4cccnc43)nc2c1 (centres unmarked) [Example 6, N-(2-pyridinylmethyl)-N′-(5-carboxymethyl-1-H-benzimidazol-2-ylmethyl)-N′-(5,6,7,8-tetrahydro-8-quinolinyl)-1,4-benzenedimethanamine]	> 20%	< 20 µg/mL
Oc1cccc2[nH]c(CN(Cc3ccc(CNCc4ccccn4)cc3)C3CCCc4cccnc43)nc12 (centres unmarked) [Example 7, N-(2-pyridinylmethyl)-N′-(4-hydroxy-1-H-benzimidazol-2-ylmethyl)-N′-(5,6,7,8-tetrahydro-8-quinolinyl)-1,4-benzenedimethanamine]	> 20%	< 20 µg/mL
O=C(c1ccccc1)c1ccc2[nH]c(CN(Cc3ccc(CNCc4ccccn4)cc3)C3CCCc4cccnc43)nc2c1 (centres unmarked) [Example 9, N-(2-pyridinylmethyl)-N′-(5-benzoyl-1H-benzimidazol-2-ylmethyl)-N′-(5,6,7,8-tetrahydro-8-quinolinyl)-1,4-benzenedimethanamine]	> 20%	< 20 µg/mL
c1ccc(CNCc2ccc(CN(Cc3nc4cccnc4[nH]3)C3CCCc4cccnc43)cc2)nc1 (centres unmarked) [Example 10, N-(2-pyridinylmethyl)-N′-[(1H)-4-azabenzimidazol-2-ylmethyl]-N′-(5,6,7,8-tetrahydro-8-quinolinyl)-1,4-benzenedimethanamine]	> 20%	< 20 µg/mL
Clc1ccc2[nH]c(CN(Cc3ccc(CNCc4ccccn4)cc3)C3CCCc4cccnc43)nc2c1 (centres unmarked) [Example 11, N-(2-pyridinylmethyl)-N′-[5-chloro-1H-benzimidazol-2-ylmethyl]-N′-(5,6,7,8-tetrahydro-8-quinolinyl)-1,4-benzenedimethanamine]	> 20%	< 20 µg/mL
COc1ccc2nc(CN(Cc3ccc(CNCc4ccccn4)cc3)C3CCCc4cccnc43)[nH]c2c1 (centres unmarked) [Example 12, N-(2-pyridinylmethyl)-N′-[5-methoxy-1H-benzimidazol-2-ylmethyl]-N′-(5,6,7,8-tetrahydro-8-quinolinyl)-1,4-benzenedimethanamine]	> 20%	< 20 µg/mL
COc1ccc(OC)c2[nH]c(CN(Cc3ccc(CNCc4ccccn4)cc3)C3CCCc4cccnc43)nc12 (centres unmarked) [Example 15, N-(2-pyridinylmethyl)-N′-[4,7-dimethoxy-1H-benzimidazol-2-ylmethyl]-N′-(5,6,7,8-tetrahydro-8-quinolinyl)-1,4-benzenedimethanamine]	> 20%	< 20 µg/mL
c1ccc(CNCc2ccc(CN(Cc3nc4ccccc4s3)C3CCCc4cccnc43)cc2)nc1 (centres unmarked) [Example 16, N-(2-pyridinylmethyl)-N′-(benzothiazol-2-ylmethyl)-N′-(5,6,7,8-tetrahydro-8-quinolinyl)-1,4-benzenedimethanamine]		< 20 µg/mL
Cc1cccc2nc(CN(Cc3ccc(CNCc4ccccn4)cc3)C3CCCc4cccnc43)[nH]c12 (centres unmarked) [Example 20, N-(2-pyridinylmethyl)-N′-(4-methylbenzimidazol-2-ylmethyl)-N′-(5,6,7,8-tetrahydro-8-quinolinyl)-1,4-benzenedimethanamine]	> 20%	< 20 µg/mL
Fc1cccc2nc(CN(Cc3ccc(CNCc4ccccn4)cc3)C3CCCc4cccnc43)[nH]c12 (centres unmarked) [Example 21, N-(2-pyridinylmethyl)-N′-(4-fluorobenzimidazol-2-ylmethyl)-N′-(5,6,7,8-tetrahydro-8-quinolinyl)-1,4-benzenedimethanamine]	> 20%	< 20 µg/mL
Brc1cccc2nc(CN(Cc3ccc(CNCc4ccccn4)cc3)C3CCCc4cccnc43)[nH]c12 (centres unmarked) [Example 22, N-(2-pyridinylmethyl)-N′-(4-bromobenzimidazol-2-ylmethyl)-N′-(5,6,7,8-tetrahydro-8-quinolinyl)-1,4-benzenedimethanamine]	> 20%	< 20 µg/mL
c1ccc(CNCc2ccc(CN(CCc3nc4ccccc4[nH]3)C3CCCc4cccnc43)cc2)nc1 (centres unmarked) [Example 23]	> 20%	< 20 µg/mL
c1ccc(CNCc2ccc(CN(CCCc3nc4ccccc4[nH]3)C3CCCc4cccnc43)cc2)nc1 (centres unmarked) [Example 24, N-(2-pyridinylmethyl)-N′-[3-(1H-benzimidazol-2-yl)prop-1-yl]-N′-(5,6,7,8-tetrahydro-8-quinolinyl)-1,4-benzenedimethanamine]	> 20%	< 20 µg/mL
COc1ccc(-c2cnc(CN(Cc3ccc(CNCc4ccccn4)cc3)C3CCCc4cccnc43)[nH]2)cc1 (centres unmarked) [Example 26, N-(2-pyridinylmethyl)-N′-[4-(4-methoxyphenyl)-1H-imidazol-2-ylmethyl]-N′-(5,6,7,8-tetrahydro-8-quinolinyl)-1,4-benzenedimethanamine]	> 20%	< 20 µg/mL
Fc1ccc(-c2c[nH]c(CN(Cc3ccc(CNCc4ccccn4)cc3)C3CCCc4cccnc43)n2)cc1 (centres unmarked) [Example 36, N-(2-Pyridinylmethyl)-N′-[4-(4-fluorophenyl)-1H-imidazol-2-ylmethyl]-N′-(5,6,7,8-tetrahydro-8-quinolinyl)-1,4-benzenedimethanamine]	> 20%	< 20 µg/mL
CCOc1cccnc1CNCc1ccc(CN(Cc2nc3ccccc3[nH]2)C2CCCc3cccnc32)cc1 (centres unmarked) [Example 69, N-(3-ethoxy-2-pyridinylmethyl)-N′-(1H-benzimidazol-2-ylmethyl)-N′-(5,6,7,8-tetrahydro-8-quinolinyl)-1,4-benzenedimethanamine]		< 20 µg/mL
[O-][n+]1ccccc1CNCc1ccc(CN(Cc2nc3ccccc3[nH]2)C2CCCc3cccnc32)cc1 (centres unmarked) [Example 70, N-(1-oxo-2-pyridinylmethyl)-N′-(1H-benzimidazol-2-ylmethyl)-N′-(5,6,7,8-tetrahydro-8-quinolinyl)-1,4-benzenedimethanamine]		< 20 µg/mL
c1ccc(N[C@H]2CCCC[C@@H]2N(Cc2ccc(CNCc3ccccn3)cc2)Cc2nc3ccccc3[nH]2)cc1 [Example 131]		< 20 µg/mL

Reference: US7084155B2, “Chemokine receptor binding heterocyclic compounds” (AnorMED, priority 2000, dated 2006)
